Drawing on patent US9340577B2, “HLA binding motifs and peptides and their uses” (priority 1992, dated 2016), this text covers IC50 and Degeneracy for 16 molecules.

Where two headings read alike, the source gives them in different places. Residues, ends and D or L forms follow the SMILES beside them. No end group written: not given here.

Test [1] has as its target H-2Db (Mus musculus, UniProt P01899). Nature of the test: biochemical. The format is binding, murine.
The target in test [2] is DR1 (DRB1*0101) (Homo sapiens, UniProt P01903+P01911, A100R/D57E/F55L/F60I/F76Y/I96L/L162R/M171V/P40L/Q125E/R42F/V115G/Y59C). Kind of test: biochemical. The test is classed as binding. Conditions: read-out: DRB1*0101.
The target of test [3] is DR4w4 (DRB1*0401) (Homo sapiens, UniProt P01903+P01911, A100K/A169T/F76Y/I96L/K127E/L162R/M171V/N62H/P40V/Q125Y/R42H/S133A/S149N/S66Y/V115G/V209L/W38E). Kind of test: biochemical. The format is binding.
In test [4] the target is DR7 (DRB1*0701) (Homo sapiens, UniProt P01903+P01911, A100R/A102G/A103Q/D57E/D86V/E43K/F76Y/K127E/L162R/M171V/P40G/Q125H/Q99D/R33Q/R42Y/R54Q/S133A/S66F/T210M/V115G/Y107V/Y59L/Y89S). Kind of test: biochemical. The test is classed as binding. Conditions: read-out: DRB1*0701.
For test [5], the target named is DRB1*1101 (Homo sapiens, UniProt P01903+P01911, A100R/A169T/A87E/I96F/K41T/L162R/M171V/P40S/Q125H/Q178H/Q39Y/Q99D/R42S/S66Y/T262R/V115G/W38E). As to conditions: read-out: DRB1*1101.
Test [6] deals with A02 supertype. The format is binding, human.
For test [7], the system named is A01 supertype. The format is binding, human.
The target of test [8] is DRB5*0101 (Homo sapiens, UniProt P01903+Q30154).
Test [9] deals with A03/11 supertype. The format is binding, human.
Test [10] deals with DRB1*0405 (Homo sapiens, UniProt P01903+P01911, A100R/A169T/D86S/F76Y/I96L/K127E/L162R/M171V/N62H/P40V/Q125Y/R42H/S133A/S149N/S66Y/V115G/V209L/W38E). Nature of the test: biochemical. The format is binding. As to conditions: read-out: DRB1*0405.
The target of test [11] is DRB1*0901 (Homo sapiens, UniProt P01903+P01911, A100R/A103E/D57H/D86V/F55Y/F60I/F76Y/I96F/K127E/L162R/M171V/P40D/Q125H/Q99R/R33Q/R42F/S133A/S66N/T210M/V115G/W38K/Y107V/Y59G/Y89S). Nature of the test: biochemical. The format is binding. Conditions: read-out: DRB1*0901.
Test [12] concerns the target DRB1*0802 (Homo sapiens, UniProt P01903+P01911, A100R/A103L/A169T/F76Y/H45Y/I96F/K41T/L162R/M171V/P40S/Q125H/Q178H/Q39Y/Q99D/R218S/R42G/S66Y/V115G/W38E). Nature of the test: biochemical. The format is binding. As to conditions: read-out: DRB1*0802.
Test [13] has as its target DRB1*1302 (Homo sapiens, UniProt P01903+P01911, A100E/A169T/K41T/L162R/M171V/P40S/Q125H/Q178H/Q39Y/Q99D/R42S/S66N/T262R/V115G/W38E/Y61H). Kind of test: biochemical. The format is binding. Conditions: read-out: DRB1*1302.
Test [14] has as its target DRB1*1501 (Homo sapiens, UniProt P01903+P01911). Nature of the test: biochemical. As to conditions: read-out: Binding affinity DRB1 *1501. The test is classed as binding.
Test [15] concerns the target DRB3*0101 (Homo sapiens, UniProt P01903+P79483). Kind of test: biochemical. The test is classed as binding. Conditions: read-out: DRB3*0101.
The target in test [16] is DRB4*0101 (Homo sapiens, UniProt P01903+P13762, G164S). Kind of test: biochemical. The format is binding. As to conditions: read-out: Binding affinity DRB4 *0101.
Test [17] has as its target B*0702 (B*0701) (Homo sapiens, UniProt P01889). Kind of test: biochemical. The format is binding.
In test [18] the target is B*3502 (Homo sapiens, UniProt P01889, A329T/A93T/A95T/C349S/D138N/D201E/D98Y/E176V/E187L/E204Q/E69T/I218V/K202T/L119I/L133F/Q94N/R155S/R180L/S121R/S35A/S48A/T118I/V127L/V306I/V36M/Y91F). Nature of the test: biochemical. The format is binding.
The target in test [19] is B*3503 (Homo sapiens, UniProt P01889, A329T/A93T/A95T/C349S/D201E/D98Y/E176V/E187L/E204Q/E69T/I218V/K202T/L119I/Q94N/R155S/R180L/S121R/S35A/S48A/T118I/V127L/V306I/V36M/Y140F/Y91F). Nature of the test: biochemical. The test is classed as binding.
Test [20] concerns the target B*5401 (B54) (Homo sapiens, UniProt P01889, A329T/C349S/D138N/D201E/E176V/E187T/E204Q/E69G/I76V/K202T/L119W/R155S/R180L/S121T/S35A/S48A/V127L/V306I/V36M/Y140L). Conditions: read-out: BINDING CAPACITY (IC50 nM) B*5401.
Test [21] concerns the target B*3501 (Homo sapiens, UniProt P01889, A329T/A93T/A95T/C349S/D201E/D98Y/E176V/E187L/E204Q/E69T/I218V/K202T/L119I/Q94N/R155S/R180L/S121R/S35A/S48A/T118I/V127L/V306I/V36M/Y140S/Y91F). Nature of the test: biochemical.

In [1], SIQFFGEL [Peptide F079.04] returned an IC50 above 44 µM.
In test [1], SIQFFGERAL [Peptide F079.03] displayed an IC50 above 44 µM.
As to “820.02 (YARRQTTLKAAA; also: non-natural residue (15A)) [Peptide 820.02]”, the IC50 in test [2] was 0.0016 µM; in test [3] (read-out: DRB1*0401) it was 0.00035 µM; in test [4] it was 8.33 µM; in test [5], 0.0012 µM.
The molecule HTQELFISNIV [Peptide 9013.0316] registered a Degeneracy in [6] of 1.
In the case of AFKDLFVVY, the Degeneracy in test [7] came to 2.
On to `CC(C)C[C@H](NC(=O)[C@H](Cc1c[nH]c2ccccc12)NC(=O)[C@H](CCCCN)NC(=O)CNC(=O)[C@H](CC(C)C)NC(=O)[C@H](CS)NC(=O)[C@H](Cc1c[nH]cn1)NC(=O)[C@H](CS)NC(=O)[C@@H](NC(=O)[C@H](CCCNC(=N)N)NC(=O)[C@H](CCC(=O)O)NC(=O)[C@H](CC(C)C)NC(=O)[C@H](CO)NC(=O)[C@H](Cc1c[nH]cn1)NC(=O)[C@H](C)NC(=O)[C@@H](N)CCC(N)=O)C(C)C)C(=O)NCC(=O)N[C@@H](Cc1c[nH]cn1)C(=O)N1CCC[C@H]1C(=O)N[C@@H](CC(=O)O)C(=O)N[C@@H](CCCCN)C(=O)O` [Peptide 868.01] (H-QAHSLERVCHCLGKWLGHPDK-OH), for which the IC50 in test [4] was above 250 µM; in test [8] (read-out: DRB5*0101) it was 2.5 µM.
For LTISYGRKK [Peptide 66.0060], in [9], the Degeneracy turned out to be 2.
As to “820.03 (ARQTTLKAAA; also: non-natural residue (15A)) [Peptide 820.03]”, the IC50 in test [2] is 0.0042 µM; in [3] (read-out: DRB1*0401) it was 0.00031 µM; in [5], 0.0018 µM.
As for `CC[C@H](C)[C@H](NC(=O)[C@H](CC(=O)O)NC(=O)[C@H](CCC(N)=O)NC(=O)[C@H](CC(C)C)NC(=O)[C@H](CO)NC(=O)[C@@H](NC(=O)[C@@H](N)CC(N)=O)[C@@H](C)O)C(=O)N[C@@H](CCC(=O)O)C(=O)N[C@H](C(=O)N[C@H](C(=O)N[C@@H](CS)C(=O)N[C@H](C(=O)N[C@@H](Cc1ccc(O)cc1)C(=O)N[C@@H](CS)C(=O)N[C@@H](CCCCN)C(=O)O)C(C)C)[C@@H](C)O)[C@@H](C)CC` [Peptide 85.0007] (H-NTSLQDIEITCVYCK-OH), the IC50 in [2] is above 12.1 µM; in test [4], above 17.2 µM; in test [10], 4.58 µM; in test [11], 30.9 µM; in [5], above 14.7 µM.
Regarding `CSCC[C@H](NC(=O)[C@H](Cc1ccccc1)NC(=O)[C@H](CCCCN)NC(=O)[C@@H](NC(=O)[C@@H](NC(=O)[C@H](CCCCN)NC(=O)[C@H](CCC(N)=O)NC(=O)[C@@H]1CCCN1C(=O)[C@H](Cc1c[nH]cn1)NC(=O)[C@@H](NC(=O)[C@H](CCC(N)=O)NC(=O)[C@H](C)NC(=O)[C@@H](N)CS)C(C)C)C(C)C)[C@@H](C)O)C(=O)N[C@@H](CC(C)C)C(=O)N[C@@H](CS)C(=O)O` [Peptide 68.0078], the IC50 turned out to be 10.2 µM in test [2]; 2.57 µM in test [3] (read-out: Binding affinity DRB1 *0401); 32.3 µM in test [4]; 8.73 µM in test [12]; 34.9 µM in test [11]; 2.19 µM in test [13]. Also, the IC50 in [14] was 0.809 µM; in [15] it was above 13.5 µM; in test [16], 0.604 µM; in test [8] (read-out: Binding affinity DRB5 *0101), 1.23 µM.
For `CSCC[C@H](NC(=O)[C@H](Cc1c[nH]c2ccccc12)NC(=O)[C@@H](NC(=O)[C@H](Cc1ccc(O)cc1)NC(=O)[C@H](Cc1ccccc1)NC(=O)[C@H](CC(=O)O)NC(=O)[C@H](Cc1ccc(O)cc1)NC(=O)[C@@H](NC(=O)[C@@H](N)CO)C(C)C)C(C)C)C(=O)O` [Peptide F138.03], the IC50 in test [1] came out at 3.37 µM.
For “782.03 (YARSQTTLKAKT; also: non-natural residue (15)) [Peptide 782.03]”, the IC50 in [2] amounted to 0.0015 µM; in test [3] (read-out: DRB1*0401), 0.00046 µM; in test [4] it was 1.2 µM; in [5], 0.0039 µM.
Turning to “820.04 (ARQTTLKAAA; also: non-natural residue (16A)) [Peptide 820.04]”, the IC50 in test [3] (read-out: DRB1*0401) is 0.0013 µM; in [5], 0.077 µM.
In test [6], `CC[C@H](C)[C@H](NC(=O)[C@H](CS)NC(=O)[C@@H](NC(=O)[C@@H](N)Cc1ccc(O)cc1)[C@@H](C)O)C(=O)N[C@@H](CC(=O)O)C(=O)NCC(=O)N[C@@H](CCC(N)=O)C(=O)N[C@@H](CS)C(=O)N[C@H](C(=O)N[C@H](C(=O)O)C(C)C)[C@@H](C)O` [Peptide 1593.58] (H-YTCIDGQCTV-OH) registered a Degeneracy of 3.
As for “820.01 (YARSQTTLKAKT; also: non-natural residue (15A)) [Peptide 820.01]”, the values for the IC50 in test [2], in test [3] (read-out: DRB1*0401) and in test [5] were 0.0024 µM, 0.00078 µM and 0.0025 µM, respectively.
Turning to `CC(C)C[C@H](NC(=O)[C@H](C)NC(=O)[C@@H](NC(=O)[C@H](CC(C)C)NC(=O)[C@H](C)NC(=O)[C@@H](NC(=O)[C@@H](NC(=O)[C@H](CCCNC(=N)N)NC(=O)[C@@H]1CCCN1C(=O)[C@H](C)N)[C@@H](C)O)C(C)C)[C@@H](C)O)C(=O)O` [APRTVALTAL], the IC50 in test [17] was 0.0042 µM; in [18] it was above 30 µM; in [19], above 30 µM; in [20], 17300 nM; in [21] it was above 30 µM.
